Results published in article PMC12125351 (Communications Biology, 2025).
No end group written: not given here.

Tested on: P. aeruginosa (ATCC 27853)
Type: cell-based
Details: broth microdilution in MHB, 37 °C, 16–20 h; triplicate, n = 3

Sequence: LVQRGRFGRFLSRIRRIRPRINFNIKGSI [AMP-17]
- Experimentally measured MIC against P. aeruginosa (ATCC 27853): above 25 μM
